# Laboratory results published in PMC7687371, “Quantitative in Vitro to in Vivo Extrapolation (QIVIVE) for Predicting Reduced Anogenital Distance Produced by Anti-Androgenic Pesticides in a Rodent Model for Male Reproductive Disorders” (Environmental Health Perspectives, 2020).
# Read-outs that look alike come from different tables or passages of the source. Marks after values point to notes of the source that are not given here.
# Tests used:
# [1] = set-up: method as in U.S. EPA 2012; details: EPI Suite, experimental preferred over modeled; ref U.S. EPA 2012; cited from earlier work
# pregnant dams and pups = details: ref EFSA's Draft Assessment Reports (DARs); cited from earlier work
# [2] = PBK model first-order kinetic parameters fitted to in vivo ADME data; set-up: species or system rat; details: PBK model parameter; for Metabolism rate in liver, Total (L/h) KMetab: metabolic clearance
# [3] = ref Wetmore et al. (2012); cited from earlier work
# NCI-H295R cells [4] = assay: Cell viability (MTT) in the H295R assay; format: cell-based, human
# Description: To capture effects on steroid hormone synthesis (testosterone and androstendione), we tested all 12 pesticides in the H295R assay with the human adrenocortical carcinoma cell line NCI-H295R (American Type Culture Collection no. CRL-2,128, LGC Standards), as previously described ([Hecker et al. 2011]; [Rosenmai et al. 2013]). In brief, cells were cultured in DMEM/F-12 +glutamine medium with HEPES buffer (Invitrogen) containing 1% insulin-transferrin-sodium selenite plus Premix (VWR) and 2.5% Nu-Serum (BD Bioscience) at 37°C in a 5% CO2 atmosphere. The day before exposure, cells were seeded 300,000 per well in clear 24-well plates (VWR Corning). Cells were exposed for 48 h to control (Forskolin: 1μM , 10μM (Sigma-Aldrich); and Prochloraz: 0.3μM , 3μM (VWR-Bie and Berntsen) or test compounds. The vehicle (DMSO) concentration was kept constant in all wells (0.1%). After 48 h, the exposure culture medium was removed and stored at –80°C until the levels of 10 steroid hormones (testosterone, androstenedione, aldosterone, corticosterone, cortisol, dehydroepiandrosterone, 17α-hydroxyprogesterone , progesterone, estrone, and 17β-estradiol ) were quantified using the high-performance liquid chromatography–tandem mass spectrometry method described elsewhere ([Mortensen and Pedersen 2007]). Minor modifications were made to accommodate a smaller sample size and to include more hormones. […]
# NCI-H295R cells [5] = assay: H295R steroidogenesis assay; format: cell-based, human; details: for Effect on androgen (steroid) synthesis, in words: H295R steroidogenesis assay
# Procedure, shortened: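 Human adrenocortical NCI-H295R cells exposed 48 h to compounds in 2-fold dilutions from 0.8 to 50 μM (0.1% DMSO), three independent experiments. Ten steroid hormones in medium measured by LC-MS/MS and normalized to solvent controls; viability checked by MTT.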
# [6] = Fetal chemical exposure analysis (LC-QTOF) at GD21; format: in vivo, rat; details: for Measured concentration in male fetuses: Sprague-Dawley, rat, in vivo, 40 mg/kg/day
# Description: Dams were decapitated under CO2 /oxygen anesthesia at GD21 and fetuses collected by cesarean section. Prior to decapitation of the fetuses, their BWs and AGDs were recorded. Blood from the dams was collected in heparinized vacutainer tubes, centrifuged at 125×g for 10 min at 4°C to prepare plasma, and, together with the amniotic fluid, frozen directly. Pooled trunk blood from all female and male fetuses of the same litter (female and male blood separately) was collected into heparin-treated capillary tubes approximately 90 min after dosing and the plasma was prepared and stored at −80°C until analysis for pesticides and selected metabolites by liquid chromatography quadrupole time-of-flight mass spectroscopy (LC-QTOF). Details about the LC-QTOF analyses are provided in “Method S1” in Supplemental Material. Amniotic fluid was collected from fetuses by pipetting, pooled within each litter, snap frozen in liquid nitrogen, and subsequently stored at −80 °C .
# Method S1. Chemical analysis of pesticide levels
# Acetonitrile, methanol, formic acid and 25% ammonium hydroxide, all of LC-MS grade and ethyl acetate were obtained from Sigma Aldrich, Schneldorf, Germany. Isolute bulk C-18 sorbent was obtained from Biotage, Sweden and was washed with acetonitrile and ethyl acetate and dried prior to use. Water was purified on a Milli Q system, Millipore Corporation, US.
# Pesticide standards were purchased from Dr. Ehrenstorfer (Augsburg, Germany), LGC-standards (Teddington, Middlesex, UK) and Sigma Aldrich (St. Louis, MO, USA). Acetonitrile used as solvents for the LC-QTOF was LiChrosolv Hypergrade. An ESI-L low concentration tuning mix from Agilent (Santa Clara, CA, USA) was used for tuning of the TOF. A reference solution was prepared containing Purine and HP0921 from Agilent (Santa Clara, CA, USA).
# Stock solutions of the pesticides were prepared at 1 mg/ml in acetonitrile, methanol or toluene.
# Standard mixtures containing the test compounds were prepared at a concentration of 10 µg/ml acetonitrile and used for preparation of calibration solutions. Isomers eluting very close to each other were avoided in these mixtures. […]
# added 200 µl of ice-cold acetonitrile in Eppendorf tubes. Internal standard was added in the form of 10 µl TPP (5 µg/ml) and the extraction was performed by whirl mixing. The tube was then stored on ice for 5 min and then centrifuged at 10,000 x g for 10 min at 4 °C (Ole Dich Instrument, Denmark). An aliquot of the supernatant was transferred to filter vials (0.45 µm) and analysed by […]
# Quality control samples were included in each analytical run. These were prepared using the same procedure as for the samples, though using amniotic fluid from untreated control Wistar rats extracted with acetonitrile containing three different levels of the relevant pesticide standards. The resulting spike levels were 0.04, 0.013 and 0.13 µg/ml. […]
# fluid or plasma from Sprague Dawley rats was transferred to an Eppendorf vial and added 150 µl of acetonitrile. 50 mg of isolute C-18 sorbent was added to the tube, which was shaken for 5 min, […]
# cooled to 4 °C and centrifuged at 10,000 x g for 10 min at 4 °C (Ole Dich Instrument makers, Denmark). 20 µl of the supernatant was transferred to an HPLC vial and mixed with 80 µl of 5%- 75% acetonitrile (this percentage was analyte dependent) prior to analysis by LC-MS.LC -QTOF […]
# Pesticide screening was carried out using a liquid chromatography-electrospray ionization-quadrupole-time of flight-mass spectrometer.
# The LC system was connected to a Bruker Daltonics, maXis qTOF mass spectrometer equipped with an electrospray ion source operated in positive ion mode (Bruker Daltonics, Bremen, Germany). The ion source settings were: nebulizer pressure 2 bars, drying gas flow 8 l/min, dry gas temperature 200 °C, capillary voltage 2500 V. The scan range was from 80 to 700 m/z with an acquisition rate of 2 Hz. Sodium formate dissolved in 50% 2-propanol was introduced in the ion […]
# [7] = set-up: method as in Sierra-Santoyo et al. (2008); details: conversion of parent compound into active metabolite; ref Sierra-Santoyo et al. (2008); cited from earlier work
# androgen receptor (AR) = molecular target: androgen receptor (AR); set-up: method as in Vinggaard et al. (2008); details: ref Vinggaard et al. (2008); read-out: AR antagonism (IC50); cited from earlier work
# Wistar rats [8] = details: rat, in vivo, cited from earlier work
# Wistar rats [9] = details: male, rat, in vivo, 40 mg/kg/day
# Description: In total, four in vivo exposure studies were conducted with pesticide exposures to pregnant rats during gestation and lactation to the selected compound (Table 2). […] For one selected dose of each compound, the internal body concentrations in dams and fetuses were determined by cesarean section at GD21. Due to the study outcomes from the third study, we conducted a fourth follow-up study on dimethomorph (Study 4).
# Pup weights and AGD were measured after birth at PD1 using a stereomicroscope with a micrometer eyepiece and were determined as the distance between the genital papilla and the anus. To discriminate between an anti-androgenic effect and stunted growth, the AGD index (AGDI) was calculated by dividing AGD by the cube root of the BW (as described by [Hass et al. 2007]). The estimation of AGDI effect doses by regression modeling required a standardized AGDI scale. Therefore, we normalized the AGDI values in relation to the dynamic range spanned by the mean AGDI of the male and the female controls as (38) normalized AGDI=mean(AGDI of male controls)−AGDI(exposed animal)/mean(AGDI of male controls)−mean(AGDI of female controls).
smiles,measurement,setting,value
"Fc1ccc(Oc2ccnc3cc(Cl)cc(Cl)c23)cc1 [Quinoxyfen, quinoxyphen]",log Kow,[1],4.66
same,Critical toxicity,pregnant dams and pups,"Reduced pup BW during lactation, liver hypertrophy"
same,LOAEL (mg/kg bw),pregnant dams and pups,100 mg/kg bw
same,NOAEL (mg/kg bw),pregnant dams and pups,25 mg/kg bw
same,Biliary excretion rate (L/h) KBiliary,[2],1.4 L/h
same,Fecal excretion rate from gut (L/h) KFeces,[2],2 L/h
same,Portal GI absorption rate into liver (L/h) KAS,[2],1 L/h
same,Urine excretion rate from kidney (L/h) KUrine,[2],0.01 L/h
same,"Metabolism rate in liver, Total (L/h) KMetab",[2],0.3 L/h
same,Unbound plasma fraction (%),[3],5.0^g %
same,"Cytotoxicity in H295R assay, concentrations",NCI-H295R cells [4],cytotoxicity was observed at the same concentrations
same,"Effect on androgen (steroid) synthesis, in words",NCI-H295R cells [5],inhibited testosterone synthesis
same,IC20,"NCI-H295R cells [5]; Homo sapiens, NCI-H295R, read-out: Testosterone inhibition (IC20 µM)",1000 nM
same,"Androstendione, LOEC",NCI-H295R cells [5]; multiple contrast tests,1.6 µM
same,"Corticosterone, LOEC",NCI-H295R cells [5]; multiple contrast tests,3.1 µM
same,"DHEA, LOEC",NCI-H295R cells [5]; multiple contrast tests,1.6 µM
same,"Estradiol, LOEC",NCI-H295R cells [5]; multiple contrast tests,25 µM
same,"Progesterone, LOEC",NCI-H295R cells [5]; multiple contrast tests,50 µM
same,"Testosterone, lowest observed effect concentration (LOEC)",NCI-H295R cells [5]; multiple contrast tests,1.6 µM
"C=CC(C)(O)C(=O)Nc1cc(Cl)cc(Cl)c1 (centres unmarked) [M2, 3′,5′-dichloro-2-hydroxy-2-methylbut-3-enanilide]",Measured concentration in male fetuses,[6],3.4 µM
same,log Kow,[1],2.95
same,"Metabolism rate in liver, Metabolite (L/h)",[7],0.9^h L/h
same,Urine excretion rate from kidney (L/h) KUrine,[2],0.2 L/h
same,IC50,androgen receptor (AR),200 nM
"C=CC(C)(OC(=O)Nc1cc(Cl)cc(Cl)c1)C(=O)O (centres unmarked) [M1, 2-[[(3,5-dichlorophenyl)-carbamoyl]oxy]-2-methyl-3-butenoic acid]",Measured concentration in male fetuses,[6],18.0 µM
same,log Kow,[1],3.52
same,"Metabolism rate in liver, Metabolite (L/h)",[7],2.8^h L/h
same,Urine excretion rate from kidney (L/h) KUrine,[2],0.2 L/h
same,IC50,androgen receptor (AR),2000 nM
"C=CC1(C)OC(=O)N(c2cc(Cl)cc(Cl)c2)C1=O (centres unmarked) [Vinclozolin, vinclozolin]",AGDI (normalised to male and female controls) mean,Wistar rats [8]; 5 mg/kg,0.96
same,AGDI (normalised to male and female controls) mean,Wistar rats [8]; 10 mg/kg,0.80
same,AGDI (normalised to male and female controls) mean,Wistar rats [8]; 20 mg/kg,0.83
same,AGDI (normalised to male and female controls) mean,Wistar rats [8]; 24.5 mg/kg,0.93
same,AGDI (normalised to male and female controls) mean,Wistar rats [8]; 40 mg/kg,0.72
same,AGDI (normalised to male and female controls) mean,Wistar rats [8]; 80 mg/kg,0.46
same,AGDI (normalised to male and female controls) mean,Wistar rats [8]; 95.9 mg/kg,0.42
same,AGDI (normalised to male and female controls) mean,Wistar rats [8]; 160 mg/kg,0.25
same,AGDI ED10,Wistar rats [8],9.2 mg/kg BW
same,AGDI ED50,Wistar rats [8],78.7 mg/kg BW
same,Measured concentration in male fetuses (μM),"[6]; fetal plasma GD21, mean litter value, dams dosed 40 mg/kg BW per day parent compound (Study 1)",<0.15 ^e μM
same,log Kow,[1],3.10
same,Portal GI absorption rate into liver (L/h) KAS,[2],0.5 L/h
same,Urine excretion rate from kidney (L/h) KUrine,[2],0.05 L/h
same,"Metabolism rate in liver, Total (L/h) KMetab",[2],1.4 L/h
same,Unbound plasma fraction (%),[3],59^g %
same,"Effect on androgen (steroid) synthesis, in words",NCI-H295R cells [5],negligible activity in terms of suppressing steroid synthesis
same,AGDI reduction (%),Wistar rats [9],26^d %
